Literature values in paper PMC9877316, “Identification of a novel P2X7 antagonist using structure-based virtual screening” (Frontiers in Pharmacology, 2023).

Key:
Set-up in all cases: method as in Villoutreix et al., 2011
tyrosine kinase Syk [1] = conditions: ref Villoutreix et al., 2011; cited from earlier work
mast cell degranulation = conditions: ref Villoutreix et al., 2011; read-out: IC50 for inhibiting mast cell degranulation; cited from earlier work
tyrosine kinase Syk [2] = conditions: antibody displacement assay; ref Villoutreix et al., 2011; cited from earlier work

CCOC(=O)C1=C(C)NC2=C(C(=O)c3ccccc32)C1c1cc(Br)ccc1OCC(=O)O (stereo not drawn) [Chembridge ID 6422575, (4-bromo-2-[3-(ethoxycarbonyl)-2-methyl-5-oxo-4,5-dihydro-1H-indeno[1,2-b]pyridin-4-yl]phenoxy) acetic acid]
Kd (tyrosine kinase Syk [1]): 6.2 µM
IC50 (mast cell degranulation): ≥ 20 µM
inhibition of antibody binding (tyrosine kinase Syk [2]): 81%
